Among the data in patent US20240116918A1, “SUBSTITUTED TRICYCLIC COMPOUND AS PRMT5 INHIBITOR AND USE THEREOF” (NANJING SANHOME PHARMACEUTICAL CO., LTD., priority 2019, published 2024) are IC50 values, retold here.

This assay has as its target PRMT5 (Homo sapiens (Human), UniProt O14744). The assay can be described thus: In vitro evaluation of kinase activity (PRMT5 enzymatic assay, [3H]-SAM FlashPlate). As to conditions: polypeptide substrate H4(1-21)S1ac 100 nM, [3H]-SAM 250 nM, 25° C., 60 min; read-out: Enzyme IC50 PRMT5. It counts as biochemical. Here is the method: Compounds: the compounds of the present invention prepared in the above examples. Each compound was formulated into a 10 mM stock solution with DMSO, and finally diluted into 10 concentrations for detection, with the final concentrations being 10000.00 nM, 3333.33 nM, 1111.11 nM, 370.37 nM, 123.46 nM, 41.15 nM, 13.72 nM, 4.57 nM, 1.52 nM, and 0.51 nM.
Reagents and consumables: PRMTS, purchased from Active Motif, Cat. No. 31921; polypeptide substrate H4(1-21)S1ac, purchased from Gill Biochemical (Shanghai) Co., Ltd., Cat. No. 342095; [^3H]-SAM, purchased From PerkinElmer, Cat. No. NET155V001MC; SAM, purchased from Sigma, Cat. No. A7007-100MG; SAH, purchased from Sigma, Cat. No. A9384-25MG; DTT, purchased from Sangon Bioengineering (Shanghai) Co., Ltd., Cat. No. A620058-0005. Corning-3657, purchased from Corning, Cat. No. 3657; Echo Qualified 384-Well, purchased from Labcyte, Cat. No. P-05525; FlashPlate, purchased from Perkin Elmer, Cat. No. SMP410J001PK.
2.1. Preparation of reaction buffer and reaction stop solution: the composition of 1× reaction buffer was 10 mM Tris-HCl, pH 8.0; 0.01% Tween-20; and 1 mM DTT. The composition of the reaction stop solution was 125 μM […] solution.
The compounds were dissolved in 100% DMSO to prepare 10 mM stock solutions and then diluted to desired concentrations on an Echo 384 well plate.
250 nL of the compounds diluted above were transferred from the Echo 384 well plate to a 384 well reaction plate using the Echo550 instrument.
PRMT5 was added to 1× reaction buffer to form 1.67× enzyme solution.
The polypeptide substrate and [^3H]-SAM were added to 1× reaction buffer to form 2.5× substrate solution (the final concentrations were 100 nM and 250 nM, respectively).
15 μL of 1.67× enzyme solution was added to the wells of a 384 well reaction plate. For control wells without enzymatic activity, the enzyme solution was replaced with 15 μL of 1× reaction buffer. The plate was centrifuged at 1000 rpm for 1 min and incubated at room temperature for 15 min. […]

PRMT5, sequence (O14744 whole entry): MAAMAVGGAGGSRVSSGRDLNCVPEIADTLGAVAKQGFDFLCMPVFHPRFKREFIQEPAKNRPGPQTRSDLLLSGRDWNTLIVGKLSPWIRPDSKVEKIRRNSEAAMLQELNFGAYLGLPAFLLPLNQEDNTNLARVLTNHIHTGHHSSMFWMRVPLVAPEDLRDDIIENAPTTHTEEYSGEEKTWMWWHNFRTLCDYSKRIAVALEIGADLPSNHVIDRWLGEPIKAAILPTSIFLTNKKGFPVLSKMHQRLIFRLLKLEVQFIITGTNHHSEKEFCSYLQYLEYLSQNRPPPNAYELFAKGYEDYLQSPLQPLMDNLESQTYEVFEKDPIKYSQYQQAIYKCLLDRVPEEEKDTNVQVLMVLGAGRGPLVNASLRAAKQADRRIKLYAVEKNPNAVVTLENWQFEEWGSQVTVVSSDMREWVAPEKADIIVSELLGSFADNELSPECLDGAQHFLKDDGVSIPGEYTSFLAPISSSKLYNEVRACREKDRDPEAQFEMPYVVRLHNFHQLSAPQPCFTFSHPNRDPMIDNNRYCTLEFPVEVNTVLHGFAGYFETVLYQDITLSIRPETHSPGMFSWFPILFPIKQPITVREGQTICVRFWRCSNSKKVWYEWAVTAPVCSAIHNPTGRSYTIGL
PRMT5, sequence (Q9BQA1 whole entry partner): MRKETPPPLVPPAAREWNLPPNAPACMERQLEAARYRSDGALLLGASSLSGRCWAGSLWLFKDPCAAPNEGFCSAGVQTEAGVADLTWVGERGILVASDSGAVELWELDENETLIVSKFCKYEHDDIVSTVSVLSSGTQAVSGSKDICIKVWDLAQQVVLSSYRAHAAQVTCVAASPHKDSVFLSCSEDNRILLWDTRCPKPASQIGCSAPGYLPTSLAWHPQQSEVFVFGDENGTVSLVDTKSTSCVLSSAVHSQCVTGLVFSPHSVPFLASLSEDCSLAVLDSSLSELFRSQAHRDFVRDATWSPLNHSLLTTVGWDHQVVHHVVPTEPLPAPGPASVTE

As to `CC(=O)N1CC2(CC(Nc3ccc4c(c3)C(=O)N(C[C@H](O)CN3CCc5ccccc5C3)CC43CC3)C2)C1` [Example 10, (R)-7′-((2-Acetyl-2-azaspiro[3.3]hept-6-yl)amino)-2′-(3-(3,4-dihydroisoquinolin-2(1H)-yl)-2-hydroxypropyl)-2′,3′-dihydro-1′H-spiro[cyclopropane-1,4′-isoquinolin]-1′-one], the half-maximal inhibitory concentration (IC50) (usually the concentration needed to halve the response being measured) was found to be 2660 nM.
